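Step 1: Grow cells in 96-well plates. Step 2: Expose to compound for 48 hours at 5 concentrations. Step 3: Interpolate endpoints linearly; if unreached, use highest concentration. GI50 marks 50% less growth. Definition used: TGI = concentration required for complete inhibition of growth.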
How the values were obtained:
Test in all cases: DTP human tumour cell line panel, 48 h
[1] = test system: BT-549 breast
[2] = test system: HS 578T breast
[3] = test system: NCI/ADR-RES ovarian
[4] = test system: KM20L2 colon
[5] = test system: RXF-631 renal
[6] = test system: LXFL 529 NSCLC
[7] = test system: XF 498 CNS
[8] = test system: MDA-N

| SMILES | GI50 [1] [µM] | TGI [1] [µM] | GI50 [2] [µM] | TGI [2] [µM] | GI50 [3] [µM] | TGI [3] [µM] | TGI [4] [µM] | TGI [6] [µM] | other results |
| --- | --- | --- | --- | --- | --- | --- | --- | --- | --- |
| CC(C)(C)OC(=O)N(CCCN(CCn1c2c(c3ccccc3c1=O)C(=O)c1ccccc1-2)C(=O)OC(C)(C)C)CCn1c2c(c3ccccc3c1=O)C(=O)c1ccccc1-2 | > 50 | > 50 | 41.1 | > 50 | > 50 | > 50 |  |  |  |
| CCCCCCCCCCCCCCCCOP(=O)(O)Oc1ccc(/C=C\c2ccc(OP(=O)(O)OCCCCCCCCCCCCCCCC)cc2)cc1 |  |  |  |  |  |  | > 100 | > 100 | TGI [5]: > 100 µM |
| O=c1[nH]c(=O)n(C2CC(O)C(CS)O2)cc1F (centres undefined) |  | > 100 |  | > 100 |  | > 11.7 | > 100 |  | TGI [7]: > 100 µM; TGI [8]: > 100 µM |
| CNC1C(=O)C(C)C(O)(C(CC(C)C(O)/C=C/C=C/CNC(=O)C(C)(C)C(O)\C(C)=C/C=C\C=C\Cc2cnc(C)o2)OC)C12C(=O)OC2COC (centres undefined) (tested in a mixture with another compound) |  | > 100 |  | > 100 |  | > 100 |  |  | TGI [8]: 71.4 µM |
| CCN(CC)C(=O)C/C(C)=N/NC(=O)c1ccncc1 |  |  |  |  |  |  | > 100 | > 100 | TGI [7]: > 100 µM |
| Cc1c2c(nn1-c1ccc(S(=O)(=O)/N=C3\SCC(=O)N3C(=O)c3ccccc3)cc1)-c1ccccc1CC2 | 38.6 | 92.9 |  |  | > 100 | > 100 |  |  |  |
| CN(C)C(=S)/N=c1\ss/c(=N\C(=S)N(C)C)n1-c1ccc2c(c1)OCO2 |  |  |  |  |  |  | > 100 |  |  |
| O=C(O)C(Sc1ccc(Cl)cc1)Sc1ccc(Cl)cc1 |  | > 100 |  | > 100 |  | > 100 |  |  | TGI [8]: > 100 µM |
| CC[C@H](C)[C@H](NC(=O)[C@H]1CCCCN1C)C(=O)N(C)[C@H](CCc1nc(C(=O)N[C@@H](Cc2ccccc2)C[C@H](C)C(=O)OC)cs1)C(C)C | 0.177 | 2.48 | 0.322 | 5.29 | 1.38 | > 25 |  |  |  |
| COc1ccc(C(=O)/C=C/c2cccnc2Nc2cc(OC)c(OC)c(OC)c2)cc1 | 3.1 | 11.6 | 5.31 | 38.6 | 1 | 6.29 |  |  |  |
| COc1cc([C@@H]2c3cc4c(cc3C(O[C@@H]3O[C@@H]5CO[C@@H](c6cccs6)OC5[C@H](O)[C@H]3O)C3COC(=O)[C@@H]32)OCO4)cc(OC)c1O (some centres undefined) | 0.0878 | 1.31 | 0.241 | 5.03 | 5.22 | 50 |  |  |  |
| Cn1cc(-c2csc(-c3cccc(F)c3)n2)c2cccnc21 | 20.9 | 56.1 | 19.3 | 45.5 | 20.3 | 50.2 |  |  |  |
| NCCCCn1c2c(c3ccccc3c1=O)C(=O)c1ccccc1-2 | 0.754 | 2.5 | 0.538 | 4.75 | 0.709 | 2.54 |  |  |  |
| O=C(C[C@@H](C(=O)NCc1cccc(C(F)(F)F)c1)N1C(=O)[C@@H](N2C(=O)OC[C@@H]2c2ccccc2)[C@H]1/C=C/c1ccccc1)NC1CCN(Cc2ccccc2)CC1 | 2.96 | 8.81 | 10.3 | 29.6 | > 100 | > 100 |  |  |  |
| COc1ccc(OC(=O)O[C@H]2[C@H](O[C@H]3[C@@H](O)COC(O[C@H]4C[C@H]5[C@@H]6CC=C7C[C@@H](O)CC[C@]7(C)[C@H]6CC[C@]5(C)[C@H]4[C@H](C)C(=O)CCC(C)C)[C@@H]3OC(C)=O)OC[C@@H](O)[C@@H]2O)cc1 (some centres undefined) | 0.0185 | 15.2 | < 0.01 | 0.185 | 13 | > 100 |  |  |  |
| Nc1c(-c2ccc(Br)cc2)[n+]([O-])c2ccccc2[n+]1[O-] |  |  |  |  |  |  | > 100 | > 100 | TGI [5]: > 100 µM |

| SMILES | GI50 [1] [µM] | TGI [1] [µM] | GI50 [2] [µM] | TGI [2] [µM] | GI50 [3] [µM] | TGI [3] [µM] | TGI [4] [µM] | TGI [6] [µM] | other results |
| --- | --- | --- | --- | --- | --- | --- | --- | --- | --- |
| CCCCNC(=O)NS(=O)(=O)c1ccc(N2N=C(c3ccc(C)cc3C)CC2c2ccc(N(C)C)cc2)cc1 (centres undefined) | 4.11 | 37.1 | 3.95 | > 100 | 4.12 | > 100 |  |  |  |
| C#CC[C@]12CC(=O)CC[C@H]1CC(=O)C2 |  |  |  |  |  |  | > 100 | > 100 | TGI [5]: > 100 µM |
| CNC=O.[O]=[Ge].[O]=[Ge].[O]=[Ge].[O]=[Ge][OH].[O]=[Ge][OH] |  |  |  |  |  |  | > 100 | > 100 | GI50 [6]: > 100 µM; TGI [7]: > 100 µM |
| CCOC(=O)c1c(C)n(Cc2ccc(OC)cc2)c2c1cc(O)c1[nH]c3c(c12)CCCC3 | 4.21 | 27.8 | 3.26 | 21.8 |  |  |  |  |  |
| Cc1cc(NS(=O)(=O)c2ccc(NC(=O)c3cccc4c(=O)c5ccccc5[nH]c34)cc2)no1 |  |  |  |  |  |  | > 100 | 89.2 | TGI [7]: 55.4 µM |
| COc1ccc(C2CC(=O)c3c(OC)cc(OC)cc3O2)cc1 (centres undefined) | > 100 | > 100 | > 100 | > 100 | > 100 | > 100 |  |  |  |
| CCCNC(=S)N/N=C(\C)c1ccccn1 | 1.44 | > 100 | 1.42 | > 100 | 0.0365 | > 100 |  |  |  |
| O=C(/C=C/c1ccccc1Cl)c1ccccc1Cl |  |  |  |  |  |  | 33.3 | 32 |  |
| COC(=O)C1=C(c2ccc3c(c2)OCO3)O[C@H](c2ccc3c(c2)OCO3)[C@H]1COC(C)=O |  |  |  |  |  |  | > 100 | > 100 | TGI [7]: > 100 µM |
| CC(C)=[CH][Sb]([Br])([CH]=C(C)C)([CH]=C(C)C)[CH]=C(C)C |  |  |  |  |  |  | > 100 | > 100 | GI50 [4]: 13.1 µM; GI50 [6]: 6.58 µM; GI50 [7]: 16.4 µM; TGI [7]: > 100 µM |
| CCOC(=O)[C@H]1Nc2ccc(C)cc2C2c3ccccc3CC21 (some centres undefined) |  |  |  |  |  |  | > 100 | > 100 |  |
| COc1ccc(-c2nc(-c3nc4ccc(C)cc4[nH]3)c3ccccn23)cc1 | 2.55 | 6.36 | 2.17 | 6.05 | 2.71 | 8.06 |  |  |  |
| C[C@]12CC[C@@H]3c4ccc(O)cc4C[C@@H](CCCCCCCCCS(=O)CCCC(F)(F)C(F)(F)F)[C@H]3[C@@H]1CC[C@@H]2O (some centres undefined) | > 49.9 | > 100 | > 100 | > 100 | > 100 | > 100 |  |  |  |
| COc1ccc(-n2cc(-c3cc(OC)c(OC)c(OC)c3)[nH]c2=S)cc1OC | > 100 | > 100 | > 100 | > 100 | > 100 | > 100 |  |  |  |
| COc1cc([N+](=O)[O-])ccc1NC(=O)C(F)(F)F |  | > 100 |  | > 100 |  | > 100 |  |  | TGI [8]: > 100 µM |
| COc1cc(-c2c(C#N)c(N)n3c(nc4ccccc43)c2C#N)cc(Br)c1OC | > 100 | > 100 | 2.71 | > 100 | > 100 | > 100 |  |  |  |
